According to patent US7375080B1, “Immobilized lactoferrin (Im-LF) antimicrobial agents and uses thereof” (priority 1999, dated 2008):
Like-named read-outs stand apart in the source and are kept apart here.

Key:
[1] = tested on: E. coli serotype O157:H7 (strain ATCC43895); assay type: cell-based
[2] = tested on: E. coli O157:H7 strain ATCC43895; test: Microbial adhesion assay: detachment of 3H-thymidine labeled bacteria from beef tissue by wash; assay type: cell-based

SMILES	GROWTH (%) [1] [%]	% BACTERIAL CELLS DETACHED IN 1-MINUTE [2] [%]	% BACTERIAL CELLS DETACHED IN 1-MINUTE ([2]; Lean tissue (beef)) [%]	% BACTERIAL CELLS DETACHED IN 1-MINUTE ([2]; Surface tissue (neck) (beef)) [%]
O=C(O)CC(O)(CC(=O)O)C(=O)O [0.001 M citric acid, citric acid]	103	–	–	–
CC(O)C(=O)O (stereo not drawn) [Lactic acid (2%), Lactic acid]	–	68	75	62
O=C([O-])O.[Na+] [0.01 M sodium bicarbonate, sodium bicarbonate]	112	–	–	–
[Cl-].[Na+] [0.1 M sodium chloride, sodium chloride]	100	–	–	–
